Measurements taken from US11242334B2, “Heterocyclic compounds as kinase inhibitors, compositions comprising the heterocyclic compound, and methods of use thereof” (JS INNOPHARM (SHANGHAI) LTD, priority 2017, dated 2022).

Experiments:
Colo205 cell line = assay: Colo205 cell proliferation assay (MTT assay, WST-8 readout); type: cell-based; conditions: Homo sapiens; IC50 values of growth inhibition in Colo 205 cells; 72 hours
Method in brief: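 Growth-inhibition IC50 was derived from WST-8 absorbance at 450 nm (2 h development) after 72 h compound exposure at 37° C. Exposure used final 50 μM–0.005 μM compound in 0.5% DMSO. Colo205 cells had been plated at 5,000/well in RPMI-1640 plus 10% FBS and allowed 24 h to attach.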

human ERK2 = biological target: T1, human ERK2 (Homo sapiens, UniProt P28482); assay: LanthaScreen TR-FRET enzymatic assay, ERK2; conditions: IC50 values of ERK2 biochemical activity; 5 μM ATP, 400 nM ATF2-GFP substrate
T1 construct: recombinantly expressed as GST-tagged full-length protein purified from E. coli; GST; purchased Invitrogen PV3311; host or cells: E. coli
Method in brief: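 IC50 values were fitted from percent of DMSO control using a 520/495 nm TR-FRET ratio with terbium anti-pATF2 (pThr71), read after an EDTA stop. The kinase reaction lasted one hour at room temperature, following 15-min compound pre-treatment. It contained 5 μM ATP, 400 nM ATF2-GFP substrate and 20 ng/ml in vitro-activated GST-ERK2.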

T1 sequence (P28482 whole entry): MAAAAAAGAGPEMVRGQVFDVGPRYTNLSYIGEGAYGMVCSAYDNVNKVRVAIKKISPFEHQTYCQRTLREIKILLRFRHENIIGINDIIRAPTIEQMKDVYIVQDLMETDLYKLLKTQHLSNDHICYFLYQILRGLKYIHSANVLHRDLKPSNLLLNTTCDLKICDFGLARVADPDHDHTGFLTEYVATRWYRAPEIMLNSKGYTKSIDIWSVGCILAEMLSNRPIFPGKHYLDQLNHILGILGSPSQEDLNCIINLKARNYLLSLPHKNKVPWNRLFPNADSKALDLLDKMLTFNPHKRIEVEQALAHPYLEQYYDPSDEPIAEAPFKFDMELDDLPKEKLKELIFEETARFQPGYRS

Row | IC50 (Colo205 cell line) | IC50 (human ERK2) | SMILES
1 | 1 to 5 µM | < 0.01 µM | Cc1cc(-c2n[nH]c3ccc(-c4ccn(Cc5cccc(C#N)c5)c(=O)c4)cc23)ccn1 [Example 71, 3-((4-(3-(2-methylpyridin-4-yl)-1H-indazol-5-yl)-2-oxopyridin-1(2H)-yl)methyl)benzonitrile]
2 | 0.5 to 1 µM | < 0.01 µM | Cc1cc(-c2n[nH]c3ccc(-c4ccn(Cc5cc(F)ccc5F)c(=O)c4)cc23)ccn1 [Example 72, 1-(2,5-difluorobenzyl)-4-(3-(2-methylpyridin-4-yl)-1H-indazol-5-yl)pyridin-2(1H)-one]
3 | 0.5 to 1 µM | < 0.01 µM | Cc1cc(-c2n[nH]c3ccc(-c4ccn(Cc5cc(F)cc(C(F)(F)F)c5)c(=O)c4)cc23)ccn1 [Example 73, 1-(3-fluoro-5-(trifluoromethyl)benzyl)-4-(3-(2-methylpyridin-4-yl)-1H-indazol-5-yl)pyridin-2(1H)-one]
4 | 0.5 to 1 µM | < 0.01 µM | Cc1cc(-c2n[nH]c3ccc(-c4ccn(C(C)c5cc(F)cc(Br)c5)c(=O)c4)cc23)ccn1 (centres unmarked) [Example 74, 1-(1-(3-bromo-5-fluorophenyl)ethyl)-4-(3-(2-methylpyridin-4-yl)-1H-indazol-5-yl)pyridin-2(1H)-one]
5 | 0.5 to 1 µM | < 0.01 µM | Cc1cc(-c2n[nH]c3ccc(-c4ccn(Cc5cccc(Br)c5F)c(=O)c4)cc23)ccn1 [Example 75, 1-(3-bromo-2-fluorobenzyl)-4-(3-(2-methylpyridin-4-yl)-1H-indazol-5-yl)pyridin-2(1H)-one]
6 | 0.5 to 1 µM | < 0.01 µM | Cc1cc(-c2n[nH]c3ccc(-c4ccn(Cc5cc(F)c(F)c(F)c5)c(=O)c4)cc23)ccn1 [Example 76, 4-(3-(2-methylpyridin-4-yl)-1H-indazol-5-yl)-1-(3,4,5-trifluorobenzyl)pyridin-2(1H)-one]
7 | ≤ 0.5 µM | < 0.01 µM | Cc1cc(-c2n[nH]c3ccc(-c4ccn(Cc5ccc(F)c(C(F)(F)F)c5)c(=O)c4)cc23)ccn1 [Example 77, 1-(4-fluoro-3-(trifluoromethyl)benzyl)-4-(3-(2-methylpyridin-4-yl)-1H-indazol-5-yl)pyridin-2(1H)-one]
8 | 1 to 5 µM | 0.01 to 0.05 µM | Cc1cc(-c2n[nH]c3ccc(-c4ccn(Cc5ccc(F)c(OC(F)(F)F)c5)c(=O)c4)cc23)ccn1 [Example 78, 1-(4-fluoro-3-(trifluoromethoxy)benzyl)-4-(3-(2-methylpyridin-4-yl)-1H-indazol-5-yl)pyridin-2(1H)-one]
9 | 0.5 to 1 µM | < 0.01 µM | Cc1cc(-c2n[nH]c3ccc(-c4ccn(Cc5cc(F)cc(F)c5)c(=O)c4)cc23)ccn1 [Example 79, 1-(3,5-difluorobenzyl)-4-(3-(2-methylpyridin-4-yl)-1H-indazol-5-yl)pyridin-2(1H)-one]
10 | 1 to 5 µM | < 0.01 µM | Cc1cc(-c2n[nH]c3ccc(-c4ccn(Cc5cccc(C(F)(F)F)c5F)c(=O)c4)cc23)ccn1 [Example 80, 1-(2-fluoro-3-(trifluoromethyl)benzyl)-4-(3-(2-methylpyridin-4-yl)-1H-indazol-5-yl)pyridin-2(1H)-one]
11 | ≤ 0.5 µM | < 0.01 µM | Cc1cc(-c2n[nH]c3ccc(-c4ccn(Cc5cccc(F)c5F)c(=O)c4)cc23)ccn1 [Example 81, 1-(2,3-difluorobenzyl)-4-(3-(2-methylpyridin-4-yl)-1H-indazol-5-yl)pyridin-2(1H)-one]
12 | 0.5 to 1 µM | < 0.01 µM | Cc1cc(-c2n[nH]c3ccc(-c4ccn(Cc5cccc(F)c5N)c(=O)c4)cc23)ccn1 [Example 82, 1-(2-amino-3-fluorobenzyl)-4-(3-(2-methylpyridin-4-yl)-1H-indazol-5-yl)pyridin-2(1H)-one]
13 | 1 to 5 µM | < 0.01 µM | Cc1cc(-c2n[nH]c3ccc(-c4ccn(Cc5cccc(F)c5NS(C)(=O)=O)c(=O)c4)cc23)ccn1 [Example 83, N-(2-fluoro-6-((4-(3-(2-methylpyridin-4-yl)-1H-indazol-5-yl)-2-oxopyridin-1(2H)-yl)methyl)phenyl)methanesulfonamide]
14 | ≤ 0.5 µM | < 0.01 µM | Cn1cc(-c2n[nH]c3ccc(-c4ccn(Cc5ccc(F)c(Cl)c5)c(=O)c4)cc23)cn1 [Example 84, 1-(3-chloro-4-fluorobenzyl)-4-(3-(1-methyl-1H-pyrazol-4-yl)-1H-indazol-5-yl)pyridin-2(1H)-one]
15 | ≤ 0.5 µM | < 0.01 µM | Cn1cc(-c2n[nH]c3ccc(-c4ccn(Cc5cc(Br)ccc5F)c(=O)c4)cc23)cn1 [Example 85, 1-(5-bromo-2-fluorobenzyl)-4-(3-(1-methyl-1H-pyrazol-4-yl)-1H-indazol-5-yl)pyridin-2(1H)-one]
16 | ≤ 0.5 µM | < 0.01 µM | Cn1cc(-c2n[nH]c3ccc(-c4ccn(Cc5cc(F)cc(Br)c5)c(=O)c4)cc23)cn1 [Example 86, 1-(3-bromo-5-fluorobenzyl)-4-(3-(1-methyl-1H-pyrazol-4-yl)-1H-indazol-5-yl)pyridin-2(1H)-one]

Row | IC50 (Colo205 cell line) | IC50 (human ERK2) | SMILES
17 | > 5 µM | < 0.01 µM | Cc1cc(-c2n[nH]c3ccc(-c4ccn(Cc5cccc(F)c5NC(N)=O)c(=O)c4)cc23)ccn1 [Example 87, 1-(2-fluoro-6-((4-(3-(2-methylpyridin-4-yl)-1H-indazol-5-yl)-2-oxopyridin-1(2H)-yl)methyl)phenyl)urea]
18 | 1 to 5 µM | < 0.01 µM | CC(=O)Nc1c(F)cccc1Cn1ccc(-c2ccc3[nH]nc(-c4ccnc(C)c4)c3c2)cc1=O [Example 88, N-(2-fluoro-6-((4-(3-(2-methylpyridin-4-yl)-1H-indazol-5-yl)-2-oxopyridin-1(2H)-yl)methyl)phenyl)acetamide]
19 | ≤ 0.5 µM | < 0.01 µM | Cc1cc(-c2n[nH]c3ccc(-c4ccn(Cc5ccnc(C(F)(F)F)c5)c(=O)c4)cc23)ccn1 [Example 89, 4-(3-(2-methylpyridin-4-yl)-1H-indazol-5-yl)-1-((2-(trifluoromethyl)pyridin-4-yl)methyl)pyridin-2(1H)-one]
20 | ≤ 0.5 µM | < 0.01 µM | Cn1cc(-c2n[nH]c3ccc(-c4ccn(Cc5cccc(Br)c5)c(=O)c4)cc23)cn1 [Example 90, 1-(3-bromobenzyl)-4-(3-(1-methyl-1H-pyrazol-4-yl)-1H-indazol-5-yl)pyridin-2(1H)-one]
21 | 0.5 to 1 µM | < 0.01 µM | Cn1cc(-c2n[nH]c3ccc(-c4ccn(Cc5cccc(C(F)(F)F)c5)c(=O)c4)cc23)cn1 [Example 91, 4-(3-(1-methyl-1H-pyrazol-4-yl)-1H-indazol-5-yl)-1-(3-(trifluoromethyl)benzyl)pyridin-2(1H)-one]
22 | ≤ 0.5 µM | < 0.01 µM | Cn1cc(-c2n[nH]c3ccc(-c4ccn(Cc5cc(F)cc(C(F)(F)F)c5)c(=O)c4)cc23)cn1 [Example 92, 1-(3-fluoro-5-(trifluoromethyl)benzyl)-4-(3-(1-methyl-1H-pyrazol-4-yl)-1H-indazol-5-yl)pyridin-2(1H)-one]
23 | ≤ 0.5 µM | < 0.01 µM | Cn1cc(-c2n[nH]c3ccc(-c4ccn(Cc5cccc(I)c5)c(=O)c4)cc23)cn1 [Example 93, 1-(3-iodobenzyl)-4-(3-(1-methyl-1H-pyrazol-4-yl)-1H-indazol-5-yl)pyridin-2(1H)-one]
24 | 1 to 5 µM | < 0.01 µM | Cc1cc(-c2n[nH]c3ccc(-c4ccn(Cc5ccc6cn[nH]c6c5)c(=O)c4)cc23)ccn1 [Example 94, 1-((1H-indazol-6-yl)methyl)-4-(3-(2-methylpyridin-4-yl)-1H-indazol-5-yl)pyridin-2(1H)-one]
25 | 1 to 5 µM | < 0.01 µM | Cn1cc(-c2n[nH]c3ccc(-c4ccn(Cc5ccnc(C(F)(F)F)c5)c(=O)c4)cc23)cn1 [Example 95, 4-(3-(1-methyl-1H-pyrazol-4-yl)-1H-indazol-5-yl)-1-((2-(trifluoromethyl)pyridin-4-yl)methyl)pyridin-2(1H)-one]
26 | 0.5 to 1 µM | < 0.01 µM | CC(c1cc(F)cc(Br)c1)n1ccc(-c2ccc3[nH]nc(-c4cnn(C)c4)c3c2)cc1=O (centres unmarked) [Example 96, 1-(1-(3-bromo-5-fluorophenyl)ethyl)-4-(3-(1-methyl-1H-pyrazol-4-yl)-1H-indazol-5-yl)pyridin-2(1H)-one]
27 | 1 to 5 µM | 0.01 to 0.05 µM | CC(c1ccc(F)c(Cl)c1)n1ccc(-c2ccc3[nH]nc(-c4cnn(C)c4)c3c2)cc1=O (centres unmarked) [Example 97, 1-(1-(3-chloro-4-fluorophenyl)ethyl)-4-(3-(1-methyl-1H-pyrazol-4-yl)-1H-indazol-5-yl)pyridin-2(1H)-one]
28 | ≤ 0.5 µM | < 0.01 µM | CNCC(c1cccc(Cl)c1)n1ccc(-c2ccc3[nH]nc(-c4cnn(C)c4)c3c2)cc1=O (centres unmarked) [Example 98, 1-(1-(3-chlorophenyl)-2-(methylamino)ethyl)-4-(3-(1-methyl-1H-pyrazol-4-yl)-1H-indazol-5-yl)pyridin-2(1H)-one]
29 | 1 to 5 µM | < 0.01 µM | CC(C)Oc1ccc(-c2n[nH]c3ccc(-c4ccn(Cc5cc(F)cc(Br)c5)c(=O)c4)cc23)cn1 [Example 99, 1-(3-bromo-5-fluorobenzyl)-4-(3-(6-isopropoxypyridin-3-yl)-1H-indazol-5-yl)pyridin-2(1H)-one]
30 | 1 to 5 µM | 0.01 to 0.05 µM | CC(C)Oc1ccc(-c2n[nH]c3ccc(-c4ccn([C@H](CO)c5ccc(Cl)c(F)c5)c(=O)c4)cc23)cn1 [Example 100]
31 | ≤ 0.5 µM | < 0.01 µM | Cc1cc(-c2n[nH]c3ncc(-c4ccn([C@H](CO)c5ccc(F)c(Cl)c5)c(=O)c4)cc23)ccn1 [Example 101, (S)-1-(1-(3-chloro-4-fluorophenyl)-2-hydroxyethyl)-4-(3-(2-methylpyridin-4-yl)-1H-pyrazolo[3,4-b]pyridin-5-yl)pyridin-2(1H)-one]
